Experimental findings from paper PMC6522510 (Nature Communications, 2019) are described below.

Structures are written as SMILES. Structures can show the parent of a compound that is named as a salt. Where two headings read alike, the source gives them in different places.

Among the test systems are CHRF288-11; CMK; CMS; M07e; ML-2; MOLM-13; MV4-11; U937.
Common to all, as to design: species or system AML cell lines (8); Primary HTS, single concentration about 10 uM, Cell Titer Glo viability; log10 luminescence, per cent inhibition relative to cycloheximide control
Conditions in all cases: 72 h, relative to cycloheximide control, log10 luminescence, inhibitor
In general terms: In ATP-based viability assays light output follows the ATP content of the culture.

As for `N#Cc1cccc(Nc2ncc(-c3ccccc3)o2)c1` [SJ000573137-1, U15924/27/1], in the assay with CHRF288-11, the CHRF288-11 %inh is recorded as -9.448%. The CMK %inh in the assay on CMK is on record as 10.57%. For the same compound, the CMS %inh in the assay on CMS is -1.613%. Also, the M07e %inh in the assay on M07e is given as -5.302%. Besides, in the assay with ML-2, the ML-2 %inh is recorded as 1.759%. The MOLM-13 %inh in the assay with MOLM-13 is given as 64.56%. Moreover, the MV4-11 %inh in the assay on MV4-11 turned out to be 38.03%. In addition, the U937 %inh in the assay with U937 came out at 0.4025%.

As to `CN(C)CCOC(C)(c1ccccc1)c1ccccn1` (stereo not shown) [SJ000285751-7, DOXYLAMINE SUCCINATE], the CHRF288-11 %inh in the assay with CHRF288-11 was determined as 11.69%. The CMK %inh in the assay on CMK is -1.167%. Besides, the CMS %inh with CMS is reported as -0.1312%. Moreover, the M07e %inh with M07e is listed as 1.23%. Besides, the ML-2 %inh in the assay on ML-2 was -0.5397%. The MOLM-13 %inh in the assay on MOLM-13 turned out to be 4.161%. The MV4-11 %inh in the assay on MV4-11 was -5.123%. In the assay with U937, the U937 %inh was -1.083%.

Regarding `CCCCNC(=O)[C@@H]1Cc2ccccc2N1C(=O)[C@@H](N)CC` [SJ000772394-1, BUTABINDIDE OXALATE], the CHRF288-11 %inh with CHRF288-11 is -4.064%. The CMK %inh in the assay on CMK came to 2.146%. Besides, the CMS %inh with CMS is 0.61%. Moreover, in the assay on M07e, the M07e %inh is -2.465%. The ML-2 %inh with ML-2 is reported as -0.1457%. Further, in the assay with MOLM-13, the MOLM-13 %inh is 0.241%. Further, the MV4-11 %inh in the assay on MV4-11 is recorded as -1.569%. The U937 %inh in the assay with U937 is given as 2.937%.

As to `CCc1cccc(CC)c1/C=C/c1cncc(C(=O)NC)c1` [SJ000573062-1, U12068/83/1], the CHRF288-11 %inh in the assay on CHRF288-11 came to 36.66%. In the assay with CMK, the CMK %inh was 82.75%. In the assay on CMS, the CMS %inh is 0.8952%. For the same compound, the M07e %inh with M07e stood at 15.2%. In addition, the ML-2 %inh with ML-2 worked out at 7.466%. Moreover, the MOLM-13 %inh in the assay on MOLM-13 was 18.25%. Moreover, in the assay with MV4-11, the MV4-11 %inh is listed as -0.1109%. In addition, the U937 %inh in the assay with U937 turned out to be 29.57%.

Take `Cc1cc(O)cc(C)c1/C=C/c1cncc(-c2nn[nH]n2)c1` [SJ000573052-1, T252/80/1]: the CHRF288-11 %inh in the assay with CHRF288-11 was -3.388%. In the assay with CMK, the CMK %inh was -5.146%. The CMS %inh in the assay on CMS is -2.3%. For the same compound, in the assay with M07e, the M07e %inh is listed as -1.115%. Further, the ML-2 %inh with ML-2 is on record as -1.281%. For the same compound, the MOLM-13 %inh in the assay on MOLM-13 is listed as -1.521%. For the same compound, the MV4-11 %inh in the assay on MV4-11 is reported as -3.299%. The U937 %inh in the assay on U937 is listed as -3.239%.

`COC(=O)/C=C/c1cccc(N(Cc2ccc(-c3ccc(N(C)C)cc3)cc2)C(=O)C2CCCCC2)c1` [SJ000546510-1, FEXARAMINE]: in the assay with CHRF288-11, the CHRF288-11 %inh was -3.158%. Also, the CMK %inh in the assay with CMK is on record as -0.2535%. Also, the CMS %inh in the assay with CMS came to 0.8467%. For the same compound, the M07e %inh with M07e is given as 1.611%. Also, the ML-2 %inh in the assay on ML-2 amounted to 2.174%. In addition, the MOLM-13 %inh with MOLM-13 is listed as -2.683%. Also, in the assay with MV4-11, the MV4-11 %inh was -0.6838%. Moreover, the U937 %inh with U937 was -1.175%.

Regarding `CCOC(=O)C(C)Oc1cccc2c(=O)n(CC(=O)Nc3ccc4c(c3)OCCO4)ccc12` (stereo not shown) [SJ000565608-2, SID 7969543], the CHRF288-11 %inh in the assay on CHRF288-11 is given as 4.074%. In the assay on CMK, the CMK %inh is 1.565%. Further, the CMS %inh in the assay with CMS was -1.631%. The M07e %inh in the assay with M07e is given as -1.631%. Also, the ML-2 %inh with ML-2 was 3.909%. Besides, the MOLM-13 %inh with MOLM-13 is 1.293%. Also, the MV4-11 %inh with MV4-11 was determined as 2.255%. The U937 %inh with U937 is given as -0.5022%.

In the case of `Fc1cccc(COc2ccc(Nc3ncnc4cc(-c5ccc[nH]5)sc34)cc2Cl)c1` [SJ000573252-1, U16950/26/1], the CHRF288-11 %inh in the assay with CHRF288-11 is recorded as 1.14%. For the same compound, the CMK %inh in the assay with CMK amounted to 115.2%. Further, the CMS %inh in the assay with CMS is listed as 15.37%. Further, in the assay with M07e, the M07e %inh is recorded as 5.221%. The ML-2 %inh in the assay on ML-2 came to 17.93%. In the assay on MOLM-13, the MOLM-13 %inh came out at 14.24%. In addition, the MV4-11 %inh with MV4-11 came out at 9.963%. The U937 %inh in the assay on U937 is 11.09%.

`CC=CC1=C(C(=O)O)N2C(=O)[C@@H](NC(=O)[C@H](N)c3ccc(O)cc3)[C@H]2SC1` [SJ000565172-1, CEFPROZIL]: the CHRF288-11 %inh with CHRF288-11 (CHRF288-11 %inh, 10 µM) is -2.763%. For the same compound, the CMK %inh in the assay on CMK (CMK %inh, 10 µM) was -2.483%. Also, the CMS %inh in the assay with CMS (CMS %inh, 10 µM) is listed as -1.599%. Further, the M07e %inh in the assay with M07e (M07e %inh, 10 µM) was -0.1553%. Besides, in the assay on ML-2 (ML-2 %inh, 10 µM), the ML-2 %inh was -0.9482%. Besides, in the assay on MOLM-13 (MOLM-13 %inh, 10 µM), the MOLM-13 %inh was found to be 3.181%. The MV4-11 %inh in the assay on MV4-11 (MV4-11 %inh, 10 µM) was determined as 3.254%. Further, in the assay with U937 (U937 %inh, 10 µM), the U937 %inh was 0.9255%.

On to `Clc1ccc(C(Cn2ccnc2)OCc2ccsc2Cl)c(Cl)c1` (single isomer, unassigned) [SJ000556739-2, TIOCONAZOLE], for which the CHRF288-11 %inh in the assay on CHRF288-11 (CHRF288-11 %inh, 10 µM) turned out to be 62.31%. In addition, the CMK %inh in the assay with CMK (CMK %inh, 10 µM) came out at 43.08%. For the same compound, in the assay with CMS (CMS %inh, 10 µM), the CMS %inh worked out at 5.318%. Also, the M07e %inh in the assay on M07e (M07e %inh, 10 µM) was 7.997%. In the assay on ML-2 (ML-2 %inh, 10 µM), the ML-2 %inh stood at 3.315%. Moreover, in the assay on MOLM-13 (MOLM-13 %inh, 10 µM), the MOLM-13 %inh is recorded as 22.63%. In addition, the MV4-11 %inh in the assay with MV4-11 (MV4-11 %inh, 10 µM) is recorded as 16.77%. The U937 %inh in the assay with U937 (U937 %inh, 10 µM) stood at 5.367%.

`COC(C)(C)CCCC(C)C/C=C/C(C)=C/C(=O)O` (stereo not shown) [SJ000561041-1, METHOPRENE ACID]: the CHRF288-11 %inh in the assay with CHRF288-11 was determined as 30.54%. Also, the CMK %inh in the assay with CMK is given as 2.394%. Further, the CMS %inh in the assay on CMS was -2.29%. Moreover, the M07e %inh in the assay with M07e was -0.2291%. Further, the ML-2 %inh with ML-2 was -0.2588%. Further, the MOLM-13 %inh with MOLM-13 was -0.01315%. Further, the MV4-11 %inh with MV4-11 was 6.95%. Besides, in the assay with U937, the U937 %inh is given as 1.555%.

With `O=C1NC(=N[C@@H](CO)c2ccccc2)S/C1=C\c1ccc2ncccc2c1` [SJ000581004-1], the CHRF288-11 %inh in the assay on CHRF288-11 was 15.94%. Moreover, in the assay on CMK, the CMK %inh was 55.48%. Moreover, the CMS %inh in the assay on CMS worked out at 4.436%. For the same compound, the M07e %inh with M07e is 12.47%. In the assay on ML-2, the ML-2 %inh is 3.929%. In addition, the MOLM-13 %inh in the assay with MOLM-13 stood at 24.69%. For the same compound, the MV4-11 %inh with MV4-11 is reported as 41.34%. For the same compound, in the assay on U937, the U937 %inh was found to be 9.087%.

With `Cn1c(-c2ccncc2)c(-c2ccc(F)cc2)c2ncccc21` [SJ000581117-1], the CHRF288-11 %inh with CHRF288-11 was 26.1%. The CMK %inh in the assay on CMK amounted to 3.59%. Further, in the assay on CMS, the CMS %inh was found to be 0.8281%. In addition, in the assay on M07e, the M07e %inh stood at 6.194%. Besides, the ML-2 %inh with ML-2 is -0.3566%. For the same compound, the MOLM-13 %inh with MOLM-13 turned out to be 0.427%. The MV4-11 %inh with MV4-11 is listed as 3.37%. In addition, the U937 %inh in the assay with U937 was 0.6927%.

For the compound `OCCCNc1nccc(-c2c(-c3ccc(F)cc3)nn3cc(C(F)(F)F)ccc23)n1` [SJ000573170-1, R5361/115/1], the CHRF288-11 %inh in the assay with CHRF288-11 was 127.7%. Further, the CMK %inh in the assay on CMK is on record as 125%. The CMS %inh with CMS amounted to 105.9%. In the assay with M07e, the M07e %inh is on record as -1.662%. Besides, the ML-2 %inh with ML-2 is -1.781%. Besides, in the assay with MOLM-13, the MOLM-13 %inh is reported as -2.069%. In addition, the MV4-11 %inh in the assay on MV4-11 is on record as -0.4985%. Moreover, in the assay on U937, the U937 %inh was found to be 1.034%.

Consider `NS(=O)(=O)c1cc2c(cc1Cl)NC(C(Cl)Cl)NS2(=O)=O` (stereo not shown) [SJ000286143-4, TRICHLORMETHIAZIDE], for which, in the assay on CHRF288-11, the CHRF288-11 %inh is listed as 5.642%. Also, the CMK %inh in the assay with CMK stood at 3.577%. For the same compound, the CMS %inh in the assay on CMS is recorded as 0.3933%. In the assay with M07e, the M07e %inh is on record as -1.321%. The ML-2 %inh in the assay with ML-2 is reported as -0.7669%. Further, the MOLM-13 %inh in the assay on MOLM-13 is on record as -1.049%. Further, in the assay on MV4-11, the MV4-11 %inh is recorded as -3.026%. The U937 %inh in the assay on U937 is given as -14.58%.

Turning to `NS(=O)(=O)c1cccc(-c2ccc3c(NC(=O)C4CC4)n[nH]c3c2)c1` [SJ000573205-1, VB100064-175A1], the CHRF288-11 %inh with CHRF288-11 turned out to be 4.666%. Further, the CMK %inh in the assay with CMK stood at 1.524%. In addition, the CMS %inh in the assay with CMS is -2.181%. For the same compound, the M07e %inh with M07e is -1.196%. Further, in the assay with ML-2, the ML-2 %inh came to 8.415%. For the same compound, in the assay with MOLM-13, the MOLM-13 %inh is recorded as 11.82%. For the same compound, the MV4-11 %inh with MV4-11 is recorded as 1.069%. Besides, the U937 %inh with U937 came to 7.36%.

In the case of `CCS(=O)(=O)c1ccc(OC)c(Nc2ncc(-c3cccc(C(C)=O)c3)o2)c1` [SJ000573024-1, U16419/42/1], in the assay with CHRF288-11, the CHRF288-11 %inh is reported as -0.8609%. Moreover, the CMK %inh with CMK is given as 1.586%. For the same compound, the CMS %inh with CMS is -0.9431%. In addition, the M07e %inh in the assay with M07e amounted to 133.2%. The ML-2 %inh in the assay with ML-2 is -2.018%. The MOLM-13 %inh with MOLM-13 was 78.46%. In the assay with MV4-11, the MV4-11 %inh amounted to 66.42%. Also, the U937 %inh in the assay with U937 is 71.28%.
